This note sets out measurements from the NIST ThermoML archive (doi:10.1021/je0501991).

In general, refractive index refers to a measure of how strongly the sample bends light. The term mass density denotes the mass of a sample divided by its volume. As a reminder, the viscosity is the internal friction of a fluid under shear.

Data set [1] in a line: refractive index (Na D-line) (dimensionless). As to conditions: 101.33 kPa, Liquid, Standard Abbe refractometry.
For data set [2] the following is noted: 101.33 kPa, Liquid.
The nature of data set [3]: molar heat capacity at constant pressure; xn = mol fraction of the nth substance listed. As to conditions: Liquid, x1 = 1.

± gives the expanded uncertainty stated by the source.

With `OCCc1ccccc1` [2-phenylethanol], the refractive index in data set [1] (308.15 K) is 1.5267 ± 0.0008. Moreover, in data set [2] (308.15 K), the mass density is recorded as 1008.79 ± 0.54 kg/m3 and the viscosity is 7.438 ± 0.12 mPa·s.

On to `OCCCc1ccccc1` [3-phenyl-1-propanol], for which the refractive index in data set [1] (308.15 K) is listed as 1.521 ± 0.001. Further, the viscosity in data set [2] (298.15 K) is listed as 10.13 ± 0.17 mPa·s. For the same molecule, the mass density in data set [2] (308.15 K) came to 991.17 ± 0.53 kg/m3.

Turning to `OCc1ccccc1` [benzenemethanol], the refractive index in data set [1] (298.15 K) was 1.5377 ± 0.0005; in data set [1] (308.15 K), 1.535 ± 0.0005. The mass density was determined as 1041.65 ± 0.27 kg/m3 in data set [2] (298.15 K) and 1033.66 ± 0.25 kg/m3 in data set [2] (308.15 K). The viscosity in data set [2] (298.15 K) is listed as 5.211 ± 0.076 mPa·s; in data set [2] (308.15 K), 4.125 ± 0.062 mPa·s.

With `C[S+](C)[O-]` [dimethyl sulfoxide], the refractive index in data set [1] (298.15 K) is listed as 1.4775 ± 0.0004; in data set [1] (308.15 K) it was 1.473 ± 0.0004. Moreover, the viscosity in data set [2] (298.15 K, Capillary tube (Ostwald / Ubbelohde) method) was found to be 1.989 ± 0.023 mPa·s; in data set [2] (308.15 K, Capillary tube (Ostwald / Ubbelohde) method), 1.645 ± 0.019 mPa·s. Further, the mass density in data set [2] (298.15 K, Vibrating tube method) is on record as 1095.68 ± 0.09 kg/m3; in data set [2] (308.15 K, Vibrating tube method), 1085.31 ± 0.09 kg/m3.

Consider `C[S+](C)[O-]` [dimethyl sulfoxide] + OCCCc1ccccc1, for which the “molar heat capacity at constant pressure” value is recorded as 142.7 ± 11 J/K/mol in data set [3] (298.15 K, 101 kPa); 143.5 ± 12 J/K/mol in data set [3] (308.15 K, 101 kPa); 144.6 ± 12 J/K/mol in data set [3] (318.15 K, 101 kPa).

As to `C[S+](C)[O-]` [dimethyl sulfoxide] + OCCc1ccccc1, the “molar heat capacity at constant pressure” value in data set [3] (298.15 K, 101.33 kPa) is 142.7 ± 11 J/K/mol; in data set [3] (308.15 K, 101.33 kPa), 143.5 ± 12 J/K/mol; in data set [3] (318.15 K, 101.33 kPa) it was 144.6 ± 12 J/K/mol.

With `C[S+](C)[O-]` [dimethyl sulfoxide] + OCc1ccccc1, the “molar heat capacity at constant pressure” value in data set [3] (298.15 K, 101.33 kPa) was determined as 142.7 ± 11 J/K/mol; in data set [3] (308.15 K, 101.33 kPa) it was 143.5 ± 12 J/K/mol; in data set [3] (318.15 K, 101.33 kPa), 144.6 ± 12 J/K/mol.
